Experimental findings from DBAASP are described below.

Values after ≈ are worked out from the molar mass of the structure shown.

Test systems include Candida krusei CBS 573; Escherichia coli; Campylobacter jejuni; Escherichia coli K-12.
Holding throughout (assay): ≥ marks a high value that may be exact or a test limit, other limits are often not marked, values filed in µg/mL are converted to µM
Test [1] deals with Escherichia coli CGMCC 1.8732.
For test [2], the system named is Pseudomonas aeruginosa CGMCC 1.2421.
For test [3], the system named is Klebsiella pneumoniae CGMCC 1.1736.
The subject of test [4] is Staphylococcus epidermidis CGMCC 1.4260.
Test [5] deals with Bacillus subtilis CGMCC 1.3376.
Test [6] concerns Staphylococcus aureus CGMCC 1.8721.
Test [7] has as its system Candida parapsilosis CBS 604.
Test [8] has as its system Candida albicans ATCC 10231.
The test system of test [9] is Saccharomyces cerevisiae SZMC 0644.
For test [10], the system named is Staphylococcus aureus 5118.
Test [11] has as its system Staphylococcus aureus E4049.
Test [12] concerns Staphylococcus aureus ATCC 9144.
Test [13] has as its system Bacillus subtilis CICC 10034.
The test system of test [14] is Candida albicans CICC 1965.
Test [15] has as its system Staphylococcus aureus CICC 10306.
The subject of test [16] is Pseudomonas aeruginosa CICC 21636.
In test [17] the test system is Staphylococcus aureus CICC 10384.
Test [18] concerns Escherichia coli CICC 10293.
Test [19] has as its system Salmonella enterica subsp. enterica serovar Paratyphi B CICC 10437.
The subject of test [20] is Saccharomyces cerevisiae CICC 1002.
Test [21] relates to Enterobacter cloacae CICC 21539.
The subject of test [22] is Listeria innocua CICC 10417.
The test system of test [23] is Serratia marcescens ATCC 4112.
For test [24], the system named is Pseudomonas aeruginosa Q12-0535.
In test [25] the test system is Pseudomonas aeruginosa PAO1.
Test [26] relates to Klebsiella pneumoniae Q14-0095.
Test [27] relates to Staphylococcus aureus MRSA-15.
For test [28], the system named is Acinetobacter baumannii Q13-0717.
The subject of test [29] is Acinetobacter baumannii Q12-0809.
Test [30] relates to Staphylococcus aureus RN4220.
Test [31] relates to Staphylococcus aureus ATCC 29213.
The subject of test [32] is Staphylococcus aureus Q14-0325.
The test system of test [33] is Staphylococcus aureus Q14-0320.
Test [34] concerns Klebsiella pneumoniae ATCC 700603.
In test [35] the test system is Klebsiella pneumoniae NCTC 13442.
The subject of test [36] is Listeria monocytogenes NCTC 11994.
Test [37] deals with Staphylococcus aureus NCTC 12493.
Test [38] deals with Acinetobacter baumannii Q12-0867.
Test [39] deals with Pseudomonas aeruginosa Q14-0890.
The test system of test [40] is Pseudomonas aeruginosa ATCC 27853.
The subject of test [41] is Enterococcus faecalis JH-2-2.
Test [42] concerns Pseudomonas aeruginosa Q12-0581.
The subject of test [43] is Pseudomonas aeruginosa Q14-0208.
Test [44] relates to Campylobacter jejuni NCTC 11351.
The test system of test [45] is Salmonella typhimurium SL1344.

The MIC is the smallest concentration in the dilution series that meets the test's criterion for growth inhibition. A higher MIC goes with weaker potency. Regarding `CC[C@H](C)[C@H](NC(=O)[C@H](C)N)C(=O)NCC(=O)N[C@@H](CO)C(=O)N[C@H](C(=O)N[C@@H](CC(C)C)C(=O)NCC(=O)N[C@@H](C)C(=O)N[C@@H](CC(C)C)C(=O)N[C@@H](C)C(=O)N[C@@H](CCCCN)C(=O)NCC(=O)N[C@@H](CC(C)C)C(=O)N1CCC[C@H]1C(=O)N[C@H](C(=O)N[C@@H](CC(C)C)C(=O)N[C@@H](CCCCN)C(=O)N[C@@H](CO)C(=O)N[C@@H](Cc1c[nH]c2ccccc12)C(=O)N[C@H](C(=O)N[C@@H](CCCCN)C(=O)N[C@@H](CC(N)=O)C(=O)N[C@@H](CCCN=C(N)N)C(N)=O)[C@@H](C)CC)[C@@H](C)O)[C@@H](C)CC` [AIGSILGALAKGLPTLKSWIKNR], the MIC in [1] is 25 µM (≈ 60.2 µg/mL); in test [2], 25 µM (≈ 60.2 µg/mL); in [3], no less than 50 µM; in [4], 12.5 µM (≈ 30.1 µg/mL); in test [5], 6.25 µM (≈ 15 µg/mL); in test [6], no less than 50 µM.
Consider `NCCCC[C@H](NC(=O)CNC(=O)[C@H](CCCCN)NC(=O)[C@H](CC(N)=O)NC(=O)[C@@H]1CSSC[C@H](N)C(=O)N1)C(=O)N[C@@H](CC(N)=O)C(=O)N[C@@H](CCCCN)C(=O)NCC(=O)N[C@@H](CO)C(=O)N[C@@H](Cc1cnc[nH]1)C(=O)O` [CCNKGKNKGSH], for which the minimum inhibitory concentration (MIC) was no less than 42.5 µM in test [7], no less than 42.5 µM in the test with Candida krusei CBS 573, 42.5 µM (≈ 49.9 µg/mL) in test [8] and no less than 42.5 µM in test [9].
With `CSCC[C@H](NC(=O)[C@H](C)NC(=O)[C@H](C)NC(=O)CNC(=O)[C@H](CCCN=C(N)N)NC(=O)[C@H](CC(=O)O)NC(=O)[C@@H](N)CC(=O)O)C(=O)N[C@@H](Cc1ccccc1)C(=O)N[C@@H](C)C(=O)N[C@H](C(=O)N[C@@H](CC(C)C)C(=O)N[C@@H](Cc1ccccc1)C(=O)N[C@@H](CC(N)=O)C(=O)N[C@@H](C)C(=O)N[C@@H](Cc1ccccc1)C(=O)N[C@@H](CO)C(=O)N[C@@H](CO)C(=O)N[C@@H](CC(C)C)C(=O)N[C@@H](CC(C)C)C(=O)N[C@@H](CCC(=O)O)C(=O)O)C(C)C` [DDRGAAMFAVLFNAFSSLLE], the MIC in test [10] was 2.3 µM (≈ 5 µg/mL); in test [11] it was 7.82 µM (≈ 17 µg/mL); in test [12] it was no less than 280 µM.
Consider `CC[C@H](C)[C@H](NC(=O)[C@H](CCSC)NC(=O)[C@H](CO)NC(=O)[C@@H](NC(=O)[C@@H](NC(=O)[C@@H](N)CCCCN)C(C)C)[C@@H](C)CC)C(=O)O` [KVISMI], for which the MIC is no less than 46.4 µM in test [13]; no less than 46.4 µM in [14]; 11.6 µM (≈ 8 µg/mL) in [15]; 23.2 µM (≈ 16 µg/mL) in test [16]; 11.6 µM (≈ 8 µg/mL) in test [17]; 11.6 µM (≈ 8 µg/mL) in test [18]. Moreover, the MIC in [19] was no less than 46.4 µM; in test [20] it was no less than 46.4 µM; in [21] it was 23.2 µM (≈ 16 µg/mL); in [22], 5.8 µM (≈ 4 µg/mL); in [23], no less than 46.4 µM.
As for `CC[C@H](C)[C@H](NC(=O)[C@H](Cc1ccccc1)NC(=O)[C@H](Cc1ccc(O)cc1)NC(=O)[C@@H](NC(=O)[C@H](CCCCN)NC(=O)[C@H](CC(C)C)NC(=O)[C@@H](NC(=O)[C@H](CCCCN)NC(=O)[C@@H](NC(=O)[C@@H](N)CO)[C@@H](C)CC)[C@@H](C)CC)[C@@H](C)CC)C(=O)N[C@@H](CCC(N)=O)C(=O)NCC(=O)N[C@@H](CCCCN)C(=O)N[C@@H](CCCN=C(N)N)C(=O)N[C@@H](Cc1cnc[nH]1)C(=O)N[C@@H](Cc1c[nH]c2ccccc12)C(=O)N[C@@H](CO)C(=O)N[C@@H](Cc1ccccc1)C(=O)O` [SIKILKIYFIQGKRHWSF], the MIC in [24] is no less than 56.5 µM; in test [25] it was 226 µM (≈ 512 µg/mL); in test [26] it was no less than 56.5 µM; in test [27] it was no less than 110 µM; in test [28], 28.3 µM (≈ 64 µg/mL); in test [29] it was no less than 56.5 µM. Moreover, the minimal inhibitory concentration (MIC) is greater than 56.5 µM in the test with Escherichia coli; no less than 113 µM in [30]; 14.1 µM (≈ 32 µg/mL) in test [31]; 14.1 µM (≈ 32 µg/mL) in test [32]; 28.3 µM (≈ 64 µg/mL) in test [33]; 56.5 µM (≈ 128 µg/mL) in [34]. Further, the minimum inhibitory concentration (MIC) in [35] was no less than 56.5 µM; against Campylobacter jejuni, no less than 56.5 µM; in test [36], no less than 113 µM; in test [37], 14.1 µM (≈ 32 µg/mL); in test [38] it was 14.1 µM (≈ 32 µg/mL); in test [39], 7.06 µM (≈ 16 µg/mL). In addition, the minimum inhibitory concentration (MIC) in [40] is greater than 56.5 µM; in test [41], no less than 113 µM; against Escherichia coli K-12, no less than 113 µM; in [42], 14.1 µM (≈ 32 µg/mL); in test [43] it was 28.3 µM (≈ 64 µg/mL); in test [44], no less than 56.5 µM. In addition, the minimum inhibitory concentration (MIC) in test [45] is no less than 226 µM.
